According to article PMC5004293, “Characterization of FRM-36143 as a new γ-secretase modulator for the potential treatment of familial Alzheimer’s disease” (Alzheimer's Research & Therapy, 2016):

Experiments:
γ-secretase [1] = assay: Population PK/PD modeling of mouse brain Aβ42 reduction; type: in vivo; conditions: population PK/PD model, mice
Protocol: (§1) Mice and rats were maintained on 12/12 h light/dark cycle with food available ad libitum. Drug treatment was prepared in a vehicle of 1 % carboxymethylcellulose (CMC):Tween80 (99.5:0.5). Twelve-week-old wild-type male mice (129S6, Taconic Biosciences, Hudson, NY, USA) or rats (Wistar, Charles River Laboratories) were administered compound p.o. without prior fasting and euthanized by CO2 asphyxiation at specified times post-dosing. After extraction of the brain, the olfactory bulb and hindbrain were removed and the cerebral hemispheres separated (mice) or cut in 4 pieces (rats). The cerebellum was removed for bioanalysis of the compound. CSF was collected from the cisterna magna and blood from a cardiac puncture.
A population pharmacokinetic/pharmacodynamic (PK/PD) analysis was performed to obtain maximal efficacy (Emax) and concentration leading to 50 % of Emax (EC50) using the Phoenix® NLME™ (NonLinear Mixed Effect) program (version 6.3, Certara USA, Inc., St. Louis, MO). The goodness of fit was assessed based on visual inspection of curve fitting, Akaike’s information criterion (AIC), and precision of parameter estimation.

γ-secretase [2] = assay: Immunoprecipitation / MALDI-TOF mass spectrometry of Aβ peptides in H4 cell media; type: cell-based, human; conditions: 300 nM, overnight
Protocol: Human neuroglioma H4 cells stably expressing wild-type human APP751 were used for this assay. Briefly, cells were plated at 15,000 cells/well in 96-well plates and left to settle for 6 h (37 °C; 5 % CO2). Cells were then washed three times with Pro293™ chemically defined medium (Lonza, Walkersville, MD, USA) followed by the addition of the compound (0.3 % final DMSO). Plates were incubated overnight, and the supernatant was removed for quantification of Aβ peptides by sandwich enzyme-linked immunosorbent assay (ELISA) (see below). Cytotoxicity was evaluated using Cell-Titer 96 W AQueous One Solution Cell Proliferation Assay (MTS Assay, Promega) according to the manufacturer’s protocol.
Immunoprecipitation of carboxyl-terminally truncated Aβ peptides from 4 mL of H4 cell media was conducted using the anti-Aβ antibody 6E10 (epitope 3–8 of Aβ; Covance, Inc., Dedham, MA, USA) or 4G8 (epitope 18–22 of Aβ; Covance, Inc., Dedham, MA, USA) coupled to magnetic beads as described elsewhere. After elution of the immunoprecipitated Aβ peptides, the detection was performed on an UltraFlextreme MALDI-TOF/TOF instrument (Bruker Daltonics, Bremen, Germany).

γ-secretase [3] = assay: Acute oral treatment of rats, brain and CSF Aβ peptides; type: in vivo, rat
Protocol: For in vivo assessment of compound efficacy, brain tissue and cerebrospinal fluid (CSF) were collected, snap frozen in liquid nitrogen, and stored at −80 °C. Brain hemispheres were homogenized in 0.6 % diethylamine (DEA) in 50 mM NaCl containing protease inhibitor cocktail (cOmplete mini, EDTA-free, Roche) using sonication (Branson) at 23 % amplitude for 30 s. Homogenates were spun at 227,000 × g for 25 min at 4 °C. Supernatants were diluted fivefold in PBS-T (0.05 % Tween-20) containing 0.67 % BSA and added to the ELISA plate. For CSF, samples were diluted threefold in the PBS-T/BSA buffer. Detection was performed using the SuperSignal™ ELISA Femto substrate (Thermo Fisher), and luminescence was read on an EnVision plate reader (Perkin Elmer).
as §1

[4] = test system: γ-secretase with FAD PS1 mutations (H163R, M233L, R278I); assay: HEK cells overexpressing APPsw with FAD PS1 mutations; type: cell-based, human
Protocol: Aβ peptide levels were quantified by sandwich ELISA using anti-Aβ38, anti-Aβ40, anti-Aβ42, (BioLegend, Dedham, MA, USA) or anti-Aβ37 for the capture and 4G8-horseradish peroxidase (HRP; BioLegend) for detection. When measuring Aβ37 and Aβ38, 4G8-HRP was added to the sample for overnight incubation, whereas it was added after the overnight incubation for 1 h for Aβ40 and Aβ42 measurements.
For cell-based assays, freshly collected samples of cultured cell supernatant were added to the plates and incubated at 4 °C for about 24 h. Detection was performed using SureBlue 3,3’,5,5’-tetramethylbenzidine (TMB) peroxidase substrate (KPL, Inc., Gaithersburg, MD, USA) and the plates read on a SpectraMax M5e microplate reader (Molecular Devices, Inc., Sunnyvale, CA, USA). GSM-treated samples were normalized to samples treated with DMSO alone (100 %) and 5 μM GSI, DAPT (0 %; Sigma-Aldrich). EC50 values were calculated from values reported as percentage of DMSO using nonlinear regression, based on a sigmoidal dose–response (variable slope) model.
The extractions were performed according to the methods described by Okochi et al.. Briefly, human embryonic kidney (HEK) cells stably expressing APPsw and PS1 derivatives were cultured to confluence in 10-cm dishes and the media replaced on the day of the experiment. Cells were treated with FRM-36143 in the presence of proteasome inhibitors (1 […], 100 nM MG262, and […]) for 1 h. Conditioned media were collected and cells were washed with ice-cold PBS and then immediately boiled for 2 min. A monitoring peptide (IVTL) and protease inhibitors were then added to the boiled samples, which were sonicated for 5 s three times and centrifuged at 100,000 × g for 1 h. The resultant supernatants were precipitated with TCA on ice for 15 min, centrifuged at 100,000 × g for 1 h, and filtered before being subjected to LC-MS/MS analysis to measure the tri-, tetra-, and pentapeptides as described elsewhere.

[5] = rats, 30 mg/kg p.o., 6 h post-dose

`COc1nc(C2=NOC[C@H](c3cc4ccccc4o3)N2)ccc1-n1cnc(C)c1` [FRM-36143, (R)-5-(benzofuran-2-yl)-3-(6-methoxy-5-(4-methyl-1H-imidazol-1-yl)pyridin-2-yl)-5,6-dihydro-4H-1,2,4-oxadiazine] was tested, and the “Maximal brain Aβ42 reduction (Emax)” value (γ-secretase [1]; 30 mg/kg data) was 51%, the “Emax for effect on brain Aβ42” value (γ-secretase [1]; 30 mg/kg data only, CV: 15 %) was 0.51 and the EC50 (γ-secretase [1]; 30 mg/kg, unbound plasma concentration, 2.5–97.5 % CI 4.6–151 nM, read-out: In vivo EC50 for Aβ42) was 0.078 µM. For the same compound, the “Percentage change (vs. DMSO) Aβ1–33” value (γ-secretase [2]) was 161%, the “Percentage change (vs. DMSO) Aβ1–34” value (γ-secretase [2]) was 125% and the “Percentage change (vs. DMSO) Aβ1–37” value (γ-secretase [2]) was 407%. For the same compound, the “Percentage change (vs. DMSO) Aβ1–38” value (γ-secretase [2]) was 126%, the “Percentage change (vs. DMSO) Aβ1–39” value (γ-secretase [2]) was 46% and the “Percentage change (vs. DMSO) Aβ1–40” value (γ-secretase [2]) was 26%. For the same compound, the “Percentage change (vs. DMSO) Aβ1–42” value (γ-secretase [2]) was 21%, the “Percentage change (vs. DMSO) Aβ5–38” value (γ-secretase [2]) was 150% and the “Percentage change (vs. DMSO) Aβ5–40” value (γ-secretase [2]) was 40%. The “Normalized AUC Aβ1–33” value (γ-secretase [2]; semi-quantitative) was 2.9, the “Normalized AUC Aβ1–34” value (γ-secretase [2]; semi-quantitative) was 0.5 and the “Normalized AUC Aβ1–37” value (γ-secretase [2]; semi-quantitative) was 23.6. For the same compound, the “Normalized AUC Aβ1–38” value (γ-secretase [2]; semi-quantitative) was 15, the “Normalized AUC Aβ1–39” value (γ-secretase [2]; semi-quantitative) was 1.6 and the “Normalized AUC Aβ1–40” value (γ-secretase [2]; semi-quantitative) was 10. The “Normalized AUC Aβ1–42” value (γ-secretase [2]; semi-quantitative) was 0.4, the “Normalized AUC Aβ5–37” value (γ-secretase [2]; semi-quantitative) was 1.9 and the “Normalized AUC Aβ5–38” value (γ-secretase [2]; semi-quantitative) was 1.5. The “Normalized AUC Aβ5–40” value (γ-secretase [2]; semi-quantitative) was 1.2, the “Aβ42 reduced to % of the baseline in rat cerebrospinal fluid” value (γ-secretase [3]; rat CSF) was 58% and the “Brain Aβ37 increase vs vehicle” value (γ-secretase [3]; [5]) was 2.5 fold. For the same compound, the “Brain Aβ42 reduction vs vehicle” value (γ-secretase [3]; [5]) was 30%, the “CSF Aβ42 reduction vs vehicle” value (γ-secretase [3]; [5]) was 58% and the “CSF Aβ37 increase vs vehicle” value (γ-secretase [3]; rats, 30 mg/kg p.o., 6 h post-dose, vehicle values close to detection limit) was 20 fold. For the same compound, the “Reversal of the effect of FAD PS1 mutations on APP processing” value ([4]; HEK APPsw with PS1 H163R, M233L or R278I, Aβ42:Aβ40, Aβ38:Aβ42, VVIA/VVIAT) was “able to reverse the effect of the mutations studied”, the “Aβ38:Aβ42 ratio (fourth cleavage step)” value ([4]; PS1 R278I mutant) was “significant increase” and the “Aβ42:Aβ40 ratio” value ([4]; PS1 R278I mutant) was “remains unchanged”.
